From ChEMBL document CHEMBL1221287 (Bioorg Med Chem Lett, 2010)

What was measured:
Carbonic anhydrase 1 = Carbonic anhydrase 1 (Homo sapiens, UniProt P00915)
Description: Inhibition of human carbonic anhydrase 1 after 15 mins by stopped flow CO2 hydration method

Carbonic anhydrase 2 = Carbonic anhydrase 2 (Homo sapiens, UniProt P00918)
Description: Inhibition of human carbonic anhydrase 2 after 15 mins by stopped flow CO2 hydration method

Carbonic anhydrase 3 = Carbonic anhydrase 3 (Homo sapiens, UniProt P07451)
Description: Inhibition of human carbonic anhydrase 3 after 15 mins by stopped flow CO2 hydration method

Carbonic anhydrase 4 = Carbonic anhydrase 4 (Homo sapiens, UniProt P22748)
Description: Inhibition of human carbonic anhydrase 4 after 15 mins by stopped flow CO2 hydration method

[1] = biological target: Carbonic anhydrase 5A, mitochondrial (Homo sapiens, UniProt P35218)
Description: Inhibition of human carbonic anhydrase 5a after 15 mins by stopped flow CO2 hydration method

[2] = biological target: Carbonic anhydrase 5B, mitochondrial (Homo sapiens, UniProt Q9Y2D0)
Description: Inhibition of human carbonic anhydrase 5b after 15 mins by stopped flow CO2 hydration method

Carbonic anhydrase 6 = Carbonic anhydrase 6 (Homo sapiens, UniProt P23280)
Description: Inhibition of human carbonic anhydrase 6 after 15 mins by stopped flow CO2 hydration method

Carbonic anhydrase 7 = Carbonic anhydrase 7 (Homo sapiens, UniProt P43166)
Description: Inhibition of human carbonic anhydrase 7 after 15 mins by stopped flow CO2 hydration method

Carbonic anhydrase 12 = Carbonic anhydrase 12 (Homo sapiens, UniProt O43570)
Description: Inhibition of human carbonic anhydrase 12 after 15 mins by stopped flow CO2 hydration method

Carbonic anhydrase 13 = Carbonic anhydrase 13 (Homo sapiens, UniProt Q8N1Q1)
Description: Inhibition of human carbonic anhydrase 13 after 15 mins by stopped flow CO2 hydration method

Carbonic anhydrase 14 = Carbonic anhydrase 14 (Homo sapiens, UniProt Q9ULX7)
Description: Inhibition of human carbonic anhydrase 14 after 15 mins by stopped flow CO2 hydration method

Carbonic anhydrase 15 = biological target: T1, Carbonic anhydrase 15 (Mus musculus, UniProt Q99N23)
T1 sequence (Q99N23 whole entry): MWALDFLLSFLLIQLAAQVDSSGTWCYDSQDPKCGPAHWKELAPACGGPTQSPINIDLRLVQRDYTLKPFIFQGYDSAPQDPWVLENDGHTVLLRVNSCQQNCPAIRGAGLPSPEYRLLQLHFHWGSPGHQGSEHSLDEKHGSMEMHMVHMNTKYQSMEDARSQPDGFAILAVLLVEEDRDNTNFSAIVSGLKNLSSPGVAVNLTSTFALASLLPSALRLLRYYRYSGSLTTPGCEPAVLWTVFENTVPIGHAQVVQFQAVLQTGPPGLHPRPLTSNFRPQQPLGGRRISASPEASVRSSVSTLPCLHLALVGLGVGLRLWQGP
Description: Inhibition of mouse carbonic anhydrase 15 after 15 mins by stopped flow CO2 hydration method

Carbonic anhydrase 9 = Carbonic anhydrase 9 (Homo sapiens, UniProt Q16790)
Description: Inhibition of human carbonic anhydrase 9 after 15 mins by stopped flow CO2 hydration method

Sequence of Carbonic anhydrase 5A, mitochondrial (P35218 whole entry): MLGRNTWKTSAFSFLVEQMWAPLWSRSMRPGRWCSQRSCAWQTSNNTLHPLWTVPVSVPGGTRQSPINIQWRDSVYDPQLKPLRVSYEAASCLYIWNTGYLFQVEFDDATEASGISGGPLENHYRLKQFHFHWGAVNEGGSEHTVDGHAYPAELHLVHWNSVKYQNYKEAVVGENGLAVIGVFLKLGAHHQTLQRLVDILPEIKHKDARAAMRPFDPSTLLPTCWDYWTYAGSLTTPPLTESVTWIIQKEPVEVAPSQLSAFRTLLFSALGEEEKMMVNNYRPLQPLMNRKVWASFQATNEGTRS
Sequence of Carbonic anhydrase 3 (P07451 whole entry): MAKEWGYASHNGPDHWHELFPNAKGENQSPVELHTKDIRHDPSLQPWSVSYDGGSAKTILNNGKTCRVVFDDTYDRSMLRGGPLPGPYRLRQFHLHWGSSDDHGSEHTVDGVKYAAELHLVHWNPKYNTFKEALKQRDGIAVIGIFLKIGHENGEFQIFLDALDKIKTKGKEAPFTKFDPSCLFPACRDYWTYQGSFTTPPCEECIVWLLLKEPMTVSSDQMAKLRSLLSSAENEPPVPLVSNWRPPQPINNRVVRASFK
Sequence of Carbonic anhydrase 14 (Q9ULX7 whole entry): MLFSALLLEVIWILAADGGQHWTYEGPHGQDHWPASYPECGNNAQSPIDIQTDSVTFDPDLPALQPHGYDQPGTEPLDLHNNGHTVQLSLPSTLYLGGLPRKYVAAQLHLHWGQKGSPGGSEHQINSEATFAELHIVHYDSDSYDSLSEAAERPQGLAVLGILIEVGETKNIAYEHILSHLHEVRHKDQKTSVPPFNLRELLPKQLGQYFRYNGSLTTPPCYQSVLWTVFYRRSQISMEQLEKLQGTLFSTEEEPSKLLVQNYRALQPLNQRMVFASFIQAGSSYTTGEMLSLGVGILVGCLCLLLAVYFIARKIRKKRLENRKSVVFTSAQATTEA
Sequence of Carbonic anhydrase 7 (P43166 whole entry): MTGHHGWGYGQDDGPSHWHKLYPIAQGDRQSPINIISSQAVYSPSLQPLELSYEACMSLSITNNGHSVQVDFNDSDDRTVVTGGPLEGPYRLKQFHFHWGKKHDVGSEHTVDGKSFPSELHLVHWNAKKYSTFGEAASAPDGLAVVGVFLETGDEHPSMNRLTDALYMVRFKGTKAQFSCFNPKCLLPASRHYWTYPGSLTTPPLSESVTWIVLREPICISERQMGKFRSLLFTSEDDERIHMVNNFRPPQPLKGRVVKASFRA
Sequence of Carbonic anhydrase 6 (P23280 whole entry): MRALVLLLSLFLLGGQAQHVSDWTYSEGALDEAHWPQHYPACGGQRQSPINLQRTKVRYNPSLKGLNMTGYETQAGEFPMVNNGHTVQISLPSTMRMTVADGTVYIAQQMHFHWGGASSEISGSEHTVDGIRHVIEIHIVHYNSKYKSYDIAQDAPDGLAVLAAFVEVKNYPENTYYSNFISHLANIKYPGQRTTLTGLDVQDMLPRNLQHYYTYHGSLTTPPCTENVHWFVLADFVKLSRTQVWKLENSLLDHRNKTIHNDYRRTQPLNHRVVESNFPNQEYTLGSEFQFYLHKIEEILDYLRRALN
Sequence of Carbonic anhydrase 13 (Q8N1Q1 whole entry): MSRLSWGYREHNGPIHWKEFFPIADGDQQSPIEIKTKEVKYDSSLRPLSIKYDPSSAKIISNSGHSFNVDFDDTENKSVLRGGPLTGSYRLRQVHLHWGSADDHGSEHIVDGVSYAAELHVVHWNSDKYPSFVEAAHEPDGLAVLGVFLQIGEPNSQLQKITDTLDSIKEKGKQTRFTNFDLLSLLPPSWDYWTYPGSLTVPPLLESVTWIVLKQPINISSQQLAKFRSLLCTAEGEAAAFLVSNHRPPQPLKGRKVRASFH
Sequence of Carbonic anhydrase 12 (O43570 whole entry): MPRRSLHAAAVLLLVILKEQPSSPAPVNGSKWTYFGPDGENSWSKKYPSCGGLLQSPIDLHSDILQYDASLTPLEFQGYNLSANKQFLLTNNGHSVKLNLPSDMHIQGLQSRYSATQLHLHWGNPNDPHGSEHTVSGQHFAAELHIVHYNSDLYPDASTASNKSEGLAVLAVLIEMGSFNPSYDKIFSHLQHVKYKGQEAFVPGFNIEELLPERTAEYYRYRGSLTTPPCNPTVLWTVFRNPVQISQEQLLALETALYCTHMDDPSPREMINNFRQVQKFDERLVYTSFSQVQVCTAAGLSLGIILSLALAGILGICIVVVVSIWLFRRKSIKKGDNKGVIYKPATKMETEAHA
Sequence of Carbonic anhydrase 5B, mitochondrial (Q9Y2D0 whole entry): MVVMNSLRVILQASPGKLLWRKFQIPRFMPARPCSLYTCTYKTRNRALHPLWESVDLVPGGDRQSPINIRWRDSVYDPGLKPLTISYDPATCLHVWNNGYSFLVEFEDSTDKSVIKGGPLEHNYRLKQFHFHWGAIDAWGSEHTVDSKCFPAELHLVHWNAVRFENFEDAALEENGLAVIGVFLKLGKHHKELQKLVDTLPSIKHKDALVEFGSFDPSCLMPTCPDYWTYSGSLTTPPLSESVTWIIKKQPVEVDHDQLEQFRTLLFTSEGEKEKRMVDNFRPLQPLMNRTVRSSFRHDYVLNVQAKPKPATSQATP
Sequence of Carbonic anhydrase 1 (P00915 whole entry): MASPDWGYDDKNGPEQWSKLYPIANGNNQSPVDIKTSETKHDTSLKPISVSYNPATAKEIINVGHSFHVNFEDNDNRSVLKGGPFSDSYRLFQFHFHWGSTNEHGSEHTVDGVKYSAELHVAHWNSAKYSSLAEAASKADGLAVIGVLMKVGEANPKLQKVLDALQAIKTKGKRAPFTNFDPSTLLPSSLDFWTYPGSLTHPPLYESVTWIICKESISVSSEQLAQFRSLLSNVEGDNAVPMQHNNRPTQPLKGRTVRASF
Sequence of Carbonic anhydrase 4 (P22748 whole entry): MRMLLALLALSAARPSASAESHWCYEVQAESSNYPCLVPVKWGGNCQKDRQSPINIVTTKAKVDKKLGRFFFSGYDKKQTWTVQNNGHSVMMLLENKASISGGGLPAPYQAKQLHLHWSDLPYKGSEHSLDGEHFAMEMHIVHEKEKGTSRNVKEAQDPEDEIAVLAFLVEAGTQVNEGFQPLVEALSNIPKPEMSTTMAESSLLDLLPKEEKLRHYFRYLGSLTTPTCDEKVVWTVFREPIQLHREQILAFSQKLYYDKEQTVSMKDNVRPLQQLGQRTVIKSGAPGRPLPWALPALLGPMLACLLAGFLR

Structure (SMILES)	Ki (Carbonic anhydrase 1) [µM]	Ki (Carbonic anhydrase 2) [µM]	Ki (Carbonic anhydrase 3) [µM]	Ki (Carbonic anhydrase 4) [µM]	Ki [1] [µM]	Ki [2] [µM]	Ki (Carbonic anhydrase 6) [µM]	Ki (Carbonic anhydrase 7) [µM]	Ki (Carbonic anhydrase 12) [µM]	Ki (Carbonic anhydrase 13) [µM]	Ki (Carbonic anhydrase 14) [µM]	Ki (Carbonic anhydrase 15) [µM]	Ki (Carbonic anhydrase 9) [µM]
Oc1cc(O)c2c(c1)O[C@H](c1ccc(O)c(O)c1)[C@@H](O)C2 [CATECHIN]	2.42	1.84	3.58	4.9	4.21	4.02	4.91	0.45	4.72	10.5	11.5	7.68	5.03
COc1cc(/C=C/C(=O)CC(=O)/C=C/c2ccc(O)c(OC)c2)ccc1O [CURCUMIN]			11.3	4.97	10.2	9.46	9.94	9.3	3.48	6.85	11.7	5.09	4.05
CC(CCc1ccc(O)cc1)NCCc1ccc(O)c(O)c1 (centres undefined) [DOBUTAMINE]	1.92	0.48	7.4	8.98	0.73	0.89	9.47	4.3	4.35	9.53	12	0.39	9.82
O=C(O)/C=C/c1ccccc1O [O-COUMARIC ACID]	3.1	9.2	> 1000	62.3	> 1000	578	> 1000	> 1000	> 1000	> 1000	> 1000	> 1000	> 1000
Oc1ccccc1 [PHENOL]										697			
Oc1ccc(/C=C/c2cc(O)cc(O)c2)cc1 [RESVERATROL]	2.21	2.77	9.09	4.47	4.75	4.64	8.07	4.35	0.95	4.09	0.83	9.36	0.81
